The results in this text go back to PMC7440666, “Cryo-EM structure of the human concentrative nucleoside transporter CNT3” (PLoS Biology, 2020).

Usually stoichiometry N stands for the number of molecules, sites or subunits per partner or assembly.

Changes are numbered by the printed parent chain.

The target of one data set is T1, CNT3ins (Δ1–69) (Homo sapiens, UniProt Q9HAS3).
T1 construct: gene SLC28A3; lacks the 69 N-terminal residues, C-terminal Strep-tag, baculovirus/Sf9 expression, purified in DDM for ITC, homotrimer
T1 sequence (Q9HAS3 70-691): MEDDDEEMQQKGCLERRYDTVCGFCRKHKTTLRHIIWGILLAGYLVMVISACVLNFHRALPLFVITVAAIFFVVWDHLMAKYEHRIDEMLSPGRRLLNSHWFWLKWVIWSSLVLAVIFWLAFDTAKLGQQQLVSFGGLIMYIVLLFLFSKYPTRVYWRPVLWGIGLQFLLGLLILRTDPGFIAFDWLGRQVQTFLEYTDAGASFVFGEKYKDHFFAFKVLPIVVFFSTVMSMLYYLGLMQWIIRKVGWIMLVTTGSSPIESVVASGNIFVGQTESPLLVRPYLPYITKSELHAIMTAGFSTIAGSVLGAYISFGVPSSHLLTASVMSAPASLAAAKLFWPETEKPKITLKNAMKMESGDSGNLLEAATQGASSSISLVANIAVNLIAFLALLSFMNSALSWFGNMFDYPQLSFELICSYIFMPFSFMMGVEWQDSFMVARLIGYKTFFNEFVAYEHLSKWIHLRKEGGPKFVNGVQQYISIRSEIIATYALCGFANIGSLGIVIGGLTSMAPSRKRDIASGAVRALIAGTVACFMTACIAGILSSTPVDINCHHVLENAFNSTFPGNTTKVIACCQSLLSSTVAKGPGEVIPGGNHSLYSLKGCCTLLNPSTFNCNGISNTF
The data set can be described thus: isothermal titration calorimetry, one-site model. The following applies: read-out: binding affinity.

Data set [1] concerns the target T2, hCNT3 (full-length wild-type) (Homo sapiens, UniProt Q9HAS3).
T2 construct: gene SLC28A3; full-length, C-terminal Strep-tag, codon-optimized cDNA, baculovirus/Sf9 expression, purified in DDM, homotrimer
T2 sequence (Q9HAS3 1-691): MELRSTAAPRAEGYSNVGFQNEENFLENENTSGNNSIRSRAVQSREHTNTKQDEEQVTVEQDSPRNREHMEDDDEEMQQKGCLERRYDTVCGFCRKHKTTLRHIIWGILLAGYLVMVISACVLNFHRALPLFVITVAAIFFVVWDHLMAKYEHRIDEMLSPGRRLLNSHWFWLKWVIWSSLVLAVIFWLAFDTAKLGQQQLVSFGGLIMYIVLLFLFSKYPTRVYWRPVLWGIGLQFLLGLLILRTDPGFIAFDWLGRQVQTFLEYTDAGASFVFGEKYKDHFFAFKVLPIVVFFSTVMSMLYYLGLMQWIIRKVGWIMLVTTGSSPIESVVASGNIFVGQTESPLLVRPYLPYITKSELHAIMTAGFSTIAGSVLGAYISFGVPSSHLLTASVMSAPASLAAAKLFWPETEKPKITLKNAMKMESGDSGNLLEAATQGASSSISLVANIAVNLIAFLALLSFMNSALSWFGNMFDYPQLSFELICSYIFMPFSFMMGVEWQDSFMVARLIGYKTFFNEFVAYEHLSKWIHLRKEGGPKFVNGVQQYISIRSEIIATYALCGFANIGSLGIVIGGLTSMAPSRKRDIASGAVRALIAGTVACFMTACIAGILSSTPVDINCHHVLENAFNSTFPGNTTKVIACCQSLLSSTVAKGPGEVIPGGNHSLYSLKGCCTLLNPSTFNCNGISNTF
The data set can be described thus: isothermal titration calorimetry, one-site model. The following applies: read-out: binding affinity. On the technique in general: ITC needs no label: the signal is the heat of the interaction.

In data set [2] the target is T3, hCNT3 (full-length wild-type) (Homo sapiens, UniProt Q9HAS3, N565A).
T3 construct: gene SLC28A3; full-length, C-terminal Strep-tag, codon-optimized cDNA, baculovirus/Sf9 expression, purified in DDM, homotrimer
T3 sequence (Q9HAS3 1-691 N565A): T2 sequence (Q9HAS3 1-691) with N565A
The data set is described as follows: isothermal titration calorimetry, one-site model. Format: binding.

In data set [3] the target is T4, hCNT3 (full-length wild-type) (Homo sapiens, UniProt Q9HAS3, E343A).
T4 construct: gene SLC28A3; full-length, C-terminal Strep-tag, codon-optimized cDNA, baculovirus/Sf9 expression, purified in DDM, homotrimer
T4 sequence (Q9HAS3 1-691 E343A): T2 sequence (Q9HAS3 1-691) with E343A
The data set can be described thus: isothermal titration calorimetry, one-site model. Particulars: read-out: binding affinity.

Data set [4] concerns the molecule itself. The data set is described as follows: cryo-EM structure; purified CNT3ins (Δ1–69) at 6 mg/ml in 25 mM Tris pH 8.0, 150 mM NaCl, 0.1% digitonin; nucleoside-free; reconstruction with C3 symmetry.

For `O=c1ccn([C@@H]2O[C@H](CO)[C@@H](O)[C@H]2O)c(=O)[nH]1` [uridine], the Kd on CNT3ins (Δ1–69) is about 368 µM; in data set [1] it was about 325 µM; in data set [2], about 280 µM; in data set [3], about 1190 µM.

As for `Nc1ccn([C@@H]2O[C@H](CO)[C@@H](O)[C@H]2O)c(=O)n1` [cytidine], in data set [1], the Kd was about 260 µM.

Consider `Cc1cn([C@H]2C[C@H](O)[C@@H](CO)O2)c(=O)[nH]c1=O` [thymidine], for which the Kd in data set [1] was about 603 µM.

B1: CNT3ins, the truncated isoform (Δ1–69) of human concentrative nucleoside transporter 3 (hCNT3) (domain or fragment, UniProt Q9HAS3 70-691, looked up)
chain: T1 sequence (Q9HAS3 70-691)
notes: human concentrative nucleoside transporter 3 (hCNT3, SLC28A3), truncated isoform lacking the 69 N-terminal residues (Δ1–69); codon-optimised cDNA; density resolved for residues 100–614; also called CNT3ins (Δ1–69); SLC28A3; source: Sf9 insect cells (baculovirus, pFastBac1), purified (StrepTactin Sepharose, Superose 6 SEC) in digitonin or DDM
On to B1, for which, in data set [4], the “stoichiometry N” value was 3.
